# In PMC12799362, “The effect of dimeric bisbenzimidazoles on the activity of DNA repair enzymes TDP1, TDP2, PARP1 and PARP2” (Vavilov Journal of Genetics and Breeding, 2025):
# How the values were obtained:
# [1] = target: T1, tyrosyl-DNA phosphodiesterase 1 (TDP1) (Homo sapiens, UniProt Q9NUW8); assay: Real-time fluorescent detection of TDP1 activity (BHQ1 cleavage from 3′-end of single-stranded FAM oligonucleotide); format: biochemical; conditions: recombinant TDP1 1.5 nM, 50 nM single-stranded oligonucleotide, 26 °C; mean ± SD, at least three replicates
# T1 construct: made in house; host or cells: E. coli
# Method: (§1) Recombinant human proteins tyrosyl-DNA phosphodiesterase 1 (TDP1) and tyrosyl-DNA phosphodiesterase 2 (TDP2) were expressed in the E. coli system, poly(ADP-ribose) polymerase 1 (PARP1) and poly(ADP-ribose) polymerase 2 (PARP2) were expressed in insect cells using a baculovirus expression system and purified as described in (Sukhanova et al., 2004; Sherstyuk et al., 2019; Dyrkheeva et al., 2020, 2021).
# Determination of TDP1 activity. The reaction mixture (200 μl) for real-time fluorescent detection of TDP1 enzyme activity (Zakharenko et al., 2015) contained TDP1 reaction buffer (50 mM Tris-HCl, pH 8.0, 50 mM NaCl, and 7 mM β-mercaptoethanol), 50 nM oligonucleotide 5′-FAM-AAC GTC AGG GTC TTC C-BHQ1-3′, the test compound at various concentrations, and TDP1 at a final concentration of 1.5 nM. The reaction mixtures were incubated at a constant temperature of 26 °C in a POLARstar OPTIMA microplate fluorometer (BMG LABTECH, GmbH, Ortenberg, Germany). Fluorescence intensity (Ex485/Em520 nm) was measured every minute for 10 min. Mean values of half-maximal inhibitory concentration (IC50 – the concentration of the compound that inhibited 50 % of enzyme activity compared to the untreated control well containing only enzyme and substrate) were determined using a dose-response curve of the fluorescence signal level versus inhibitor concentration and calculated using MARS Data Analysis 2.0 (BMG LABTECH). Kinetic curves were obtained in at least three independent experiments and statistically processed in OriginPro 8.6.0 (OriginLab, Northampton, Massachusetts, USA).
# The third group of compounds includes derivatives of the monomeric compound MB2Py(Ac), which is an isosteric analog of MB3, due to the fact that the pyrrolecarboxamide fragment contained in its structure can act as a hydrogen atom donor at the carboxamide nitrogen for hydrogen bond formation, in a position analogous to benzimidazole. Dimeric derivatives are represented by the DB2Py(n) series containing n-alkyldicarboxylic acids as a linker. This series is represented by a set of compounds containing 1, 3, 4, 5, 7, 9, and 11 methylene units, which allowed for a more accurate assessment of the dependence of the inhibitory activity of compounds on spacer length. The DB2Py(n) series differs from the DB3(n) series by the presence, in addition to the bisbenzimidazole structure, of a pyrrolecarboxamide structure, which is a fragment of the AT-specific antibiotic netropsin.Using the real-time fluorescence analysis method, halfmaximal inhibitory concentration (IC50) values of the studied compounds (see the Table) were obtained in the reaction of BHQ1 cleavage from the 3′-end of the oligonucleotide by TDP1, which led to an increase in FAM fluorescence at the 5′-end of the chain (Zakharenko et al., 2015). It should also be noted that a single-stranded oligonucleotide was used as substrate to exclude the binding of dimeric bisbenzimidazoles as minor-groove ligands to the DNA substrate and direct their action toward the enzymatic target.
# [2] = target: T2, tyrosyl-DNA phosphodiesterase 2 (TDP2) (Homo sapiens, UniProt O95551); assay: TDP2 activity, removal of 5′-tyrosine from oligonucleotide substrate, denaturing PAGE; format: biochemical; conditions: inhibitor 500 μM, TDP2 200 nM, substrate 100 nM, 10 min, 37 °C; mean ± SD; read-out: TDP2 % of residual activity (500 μM)
# T2 construct: made in house; host or cells: E. coli
# T2 sequence (O95551 1-362): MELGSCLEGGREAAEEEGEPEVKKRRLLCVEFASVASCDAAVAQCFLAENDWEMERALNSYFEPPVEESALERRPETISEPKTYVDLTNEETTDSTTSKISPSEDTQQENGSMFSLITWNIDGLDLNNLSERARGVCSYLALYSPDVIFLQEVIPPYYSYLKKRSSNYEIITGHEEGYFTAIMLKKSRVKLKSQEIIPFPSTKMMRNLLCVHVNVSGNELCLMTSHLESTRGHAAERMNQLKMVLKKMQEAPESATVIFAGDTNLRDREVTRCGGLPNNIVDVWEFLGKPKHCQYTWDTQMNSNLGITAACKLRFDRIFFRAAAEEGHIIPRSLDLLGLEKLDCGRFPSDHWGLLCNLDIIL
# Source text: as §1
# Determination of TDP2 activity. For determination of TDP2 enzyme activity, an oligonucleotide 5′-tyrosine-AAC GTC AGG GTC TTC C-FAM-3′ containing a 6-FAM label at the 3′-end and an L-tyrosine residue attached via the phenolic OH group to the 5′-terminal phosphate was used as substrate, synthesized at the Russian-French-Japanese Laboratory of Bionanotechnology of Novosibirsk State University as described in (Dyrkheeva et al., 2021). The substrate at a concentration of 100 nM was incubated with TDP2 at a concentration of 200 nM in the absence or presence of inhibitor (500 μM) for 10 min at 37 °C in buffer containing 50 mM Tris-HCl, pH 8.0, 50 mM NaCl, 7 mM β-mercaptoethanol (Dyrkheeva et al., 2021). The reaction was stopped by addition of PAGE loading buffer (TBE, 10 % formamide, 7 M urea, 20 mM EDTA, 0.1 % xylene cyanol, and 0.1 % bromophenol blue). The samples were then heated at 90 °C for 5 min. The enzymatic reaction products were separated by electrophoresis in 20 % denaturing PAGE with 7 M urea at an acrylamide to bisacrylamide ratio of 19:1. A high-resolution Typhoon FLA 9500 laser scanner (GE Healthcare, Chicago, Illinois, USA) was used for gel scanning and visualization, and the data were analyzed using QuantityOne 4.6.7 software (Bio- Rad Laboratories, Inc., Hercules, California, USA). At least three independent experiments were performed, and statistical processing was carried out using OriginPro 8.6.0 (OriginLab, Northampton, Massachusetts, USA).
# To study the effect of the studied compounds on TDP2 activity, we tested the ability of this enzyme to remove the tyrosine residue from the 5′-end of the oligonucleotide substrate in the absence and presence of inhibitors, as described in (Dyrkheeva et al., 2021).
# [3] = test system: poly(ADP-ribose) polymerase 2 (PARP2); assay: PARP2 auto-poly(ADP-ribosyl)ation with [32P]-NAD+; format: biochemical, human; conditions: compound 500 μM, PARP2 600 nM, 0.6 mM [32P]-NAD+, 5 min, 37 °C; mean ± SD
# Source text: as §1
# (§2) Determination of PARP1 and PARP2 activity. For determination of PARP1 and PARP2 enzyme activity in the presence and absence of test compounds, radiolabeled [32P]-NAD⁺ was synthesized from α-[32P]-ATP according to the protocol (Sherstyuk et al., 2019). The auto-poly(ADPribosyl) ation reaction was performed in buffer for PARP1: 50 mM Tris-HCl, pH 8.0, 10 mM MgCl2, 150 mM NaCl, and 7 mM β-mercaptoethanol, as well as 2 A260 units/ml activated DNA, 0.3 mM [32P]-NAD⁺ at 37 °C. The reaction was initiated by addition of PARP1 to 200 nM and carried out for 2 min
# (§3) The buffer for PARP2 contained: 50 mM Tris-HCl, pH 8.0, 3 mM spermine, 150 mM NaCl, and 7 mM β-mercaptoethanol, 2 A260 units/ml activated DNA, 0.6 mM [32P]-NAD⁺ at 37 °C. The reaction was initiated by addition of PARP2 to 600 nM, and the reaction mixtures were incubated for 5 min. The reaction was stopped by placing 5 μl aliquots on Whatman 1 paper filters impregnated with 5 % trichloroacetic acid (TCA). The filters were washed with 5 % TCA four times and air-dried after removal of TCA with 90 % ethanol. The incorporation of the radioactive label into the reaction product was calculated using a Typhoon FLA 9500 scanner (GE Healthcare, Chicago, Illinois, USA). At least three independent experiments were performed.
# [4] = target: T3, poly(ADP-ribose) polymerase 1 (PARP1) (Homo sapiens, UniProt P09874); assay: PARP1 auto-poly(ADP-ribosyl)ation with [32P]-NAD+; format: biochemical; conditions: compound 500 μM, PARP1 200 nM, 0.3 mM [32P]-NAD+, 2 min, 37 °C; mean ± SD; read-out: PARP1 % of residual activity (500 μM)
# T3 construct: made in house; host or cells: insect cells (baculovirus expression system)
# Source text: as §1, §2, §3
# T1 sequence (Q9NUW8 whole entry): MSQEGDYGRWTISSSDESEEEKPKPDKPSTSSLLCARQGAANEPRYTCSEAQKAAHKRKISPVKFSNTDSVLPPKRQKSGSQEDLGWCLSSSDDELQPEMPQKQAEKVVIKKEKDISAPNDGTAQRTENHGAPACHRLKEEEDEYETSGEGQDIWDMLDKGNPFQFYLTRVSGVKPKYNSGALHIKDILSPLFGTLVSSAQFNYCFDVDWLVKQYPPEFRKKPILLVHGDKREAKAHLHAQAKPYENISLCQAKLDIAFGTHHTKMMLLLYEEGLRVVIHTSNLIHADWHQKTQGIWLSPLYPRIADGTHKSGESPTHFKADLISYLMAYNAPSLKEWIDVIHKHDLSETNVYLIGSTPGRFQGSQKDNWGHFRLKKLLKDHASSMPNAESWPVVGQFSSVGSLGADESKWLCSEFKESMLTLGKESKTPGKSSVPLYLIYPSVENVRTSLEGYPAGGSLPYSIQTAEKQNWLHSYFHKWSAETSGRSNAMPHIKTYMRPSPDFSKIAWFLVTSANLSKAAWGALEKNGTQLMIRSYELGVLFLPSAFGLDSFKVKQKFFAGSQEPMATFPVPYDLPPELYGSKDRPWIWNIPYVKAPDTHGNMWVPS
# T3 sequence (P09874 whole entry): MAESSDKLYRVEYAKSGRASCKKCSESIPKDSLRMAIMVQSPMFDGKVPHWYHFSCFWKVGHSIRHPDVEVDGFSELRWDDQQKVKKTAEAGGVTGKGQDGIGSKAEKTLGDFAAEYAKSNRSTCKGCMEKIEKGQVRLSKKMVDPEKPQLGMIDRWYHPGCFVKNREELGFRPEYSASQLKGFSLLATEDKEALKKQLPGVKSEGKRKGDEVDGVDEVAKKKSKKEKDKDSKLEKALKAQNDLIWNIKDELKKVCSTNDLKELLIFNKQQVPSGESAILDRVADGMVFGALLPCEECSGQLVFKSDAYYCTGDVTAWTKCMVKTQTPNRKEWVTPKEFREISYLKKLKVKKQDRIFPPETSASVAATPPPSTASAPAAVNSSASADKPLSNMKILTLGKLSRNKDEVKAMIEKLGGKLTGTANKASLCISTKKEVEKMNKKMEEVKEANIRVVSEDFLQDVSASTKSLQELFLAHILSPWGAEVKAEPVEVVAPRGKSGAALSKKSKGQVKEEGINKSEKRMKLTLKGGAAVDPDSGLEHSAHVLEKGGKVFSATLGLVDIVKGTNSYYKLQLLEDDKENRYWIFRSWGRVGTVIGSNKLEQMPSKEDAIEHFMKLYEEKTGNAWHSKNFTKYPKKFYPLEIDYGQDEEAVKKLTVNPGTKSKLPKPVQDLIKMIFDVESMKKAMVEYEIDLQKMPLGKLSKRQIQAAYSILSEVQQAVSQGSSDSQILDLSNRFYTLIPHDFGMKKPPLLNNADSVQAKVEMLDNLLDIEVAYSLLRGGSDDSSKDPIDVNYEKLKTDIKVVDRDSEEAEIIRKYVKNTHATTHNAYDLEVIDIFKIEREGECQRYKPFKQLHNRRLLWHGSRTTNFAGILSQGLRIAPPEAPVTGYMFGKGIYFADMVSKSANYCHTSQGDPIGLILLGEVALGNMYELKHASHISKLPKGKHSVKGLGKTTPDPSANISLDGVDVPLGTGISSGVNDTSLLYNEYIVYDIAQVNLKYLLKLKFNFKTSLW
SMILES,IC50 [1] [nM],remaining activity at 500 µM [2] [%],PARP2 % of residual activity (500 μM) [3],remaining activity at 500 µM [4] [%]
CN1CCN(c2ccc3nc(-c4ccc5nc(-c6ccc7nc(CNC(=O)CCN8CCN(CCC(=O)NCc9nc%10ccc(-c%11nc%12ccc(-c%13nc%14ccc(N%15CCN(C)CC%15)cc%14[nH]%13)cc%12[nH]%11)cc%10[nH]9)CC8)[nH]c7c6)[nH]c5c4)[nH]c3c2)CC1 [DB3P(2)],110 ± 10,~100,~ 100%,40 ± 5
CCCn1cc(NC(=O)CCCCCCCCCC(=O)Nc2cc(-c3nc4ccc(-c5nc6ccc(N7CCN(C)CC7)cc6[nH]5)cc4[nH]3)n(CCC)c2)cc1-c1nc2ccc(-c3nc4ccc(N5CCN(C)CC5)cc4[nH]3)cc2[nH]1 [DB2Py(9)],300 ± 80,~100,~ 100%,~100
CN1CCN(c2ccc3nc(-c4ccc5nc(-c6ccc7nc(CNC(=O)CCCCCC(=O)NCc8nc9ccc(-c%10nc%11ccc(-c%12nc%13ccc(N%14CCN(C)CC%14)cc%13[nH]%12)cc%11[nH]%10)cc9[nH]8)[nH]c7c6)[nH]c5c4)[nH]c3c2)CC1 [DB3(5)],> 50000,65 ± 10,~ 100%,62 ± 16
CN1CCN(c2ccc3nc(-c4ccc5nc(-c6ccc7nc(CNC(=O)CCCN8CCN(CCCC(=O)NCc9nc%10ccc(-c%11nc%12ccc(-c%13nc%14ccc(N%15CCN(C)CC%15)cc%14[nH]%13)cc%12[nH]%11)cc%10[nH]9)CC8)[nH]c7c6)[nH]c5c4)[nH]c3c2)CC1 [DB3P(3)],200 ± 50,~100,~ 100%,47 ± 14
CCCn1cc(NC(C)=O)cc1-c1nc2ccc(-c3nc4ccc(N5CCN(C)CC5)cc4[nH]3)cc2[nH]1 [MB2Py(Ac)],5000 ± 2000,~100,~ 100%,~100
CN1CCN(c2ccc3nc(-c4ccc5nc(-c6ccc7nc(CNC(=O)CN8CCN(CC(=O)NCc9nc%10ccc(-c%11nc%12ccc(-c%13nc%14ccc(N%15CCN(C)CC%15)cc%14[nH]%13)cc%12[nH]%11)cc%10[nH]9)CC8)[nH]c7c6)[nH]c5c4)[nH]c3c2)CC1 [DB3P(1)],100 ± 50,~100,~ 100%,70 ± 12
CN1CCN(c2ccc3nc(-c4ccc5nc(CNC(=O)CCCCN6CCN(CCCCC(=O)NCc7nc8ccc(-c9nc%10ccc(N%11CCN(C)CC%11)cc%10[nH]9)cc8[nH]7)CC6)[nH]c5c4)[nH]c3c2)CC1 [DB2P(4)],2300 ± 300,44 ± 11,85 ± 13%,33 ± 13
CC(=O)NCc1nc2ccc(-c3nc4ccc(N5CCN(C)CC5)cc4[nH]3)cc2[nH]1 [MB2(Ac)],1500 ± 500,~100,~ 100%,~100
CCCn1cc(NC(=O)CCCCCCCCCCCC(=O)Nc2cc(-c3nc4ccc(-c5nc6ccc(N7CCN(C)CC7)cc6[nH]5)cc4[nH]3)n(CCC)c2)cc1-c1nc2ccc(-c3nc4ccc(N5CCN(C)CC5)cc4[nH]3)cc2[nH]1 [DB2Py(11)],900 ± 100,~100,~ 100%,~100
